Assay results taken from article PMC8516330 (The AAPS Journal, 2021).

Test: Encapsulation efficiency of liposomes and lipodisks by RP-HPLC
Details: for EE% (encapsulation efficiency), D/L 0.1: D/L ratio 0.1 (w/w), N = 3; for Change of EE in lipodisks compared with liposomes: curcumin D/L 0.01, acyclovir D/L 0.03

| Encapsulation efficiency, liposomes D/L 0.03 ([…], D/L ratio 0.03, passive loading) [%] | EE% (encapsulation efficiency), D/L 0.1 ([…]) [%] | Encapsulation efficiency, lipodisks D/L 0.03 (lipodisks (62% DSPE-PEG2000), D/L ratio 0.03) [%] | Encapsulation efficiency, lipodisks D/L 0.01 (D/L ratio 0.01) | Change of EE in lipodisks compared with liposomes | Encapsulation efficiency, liposomes D/L 0.01 (liposomes, D/L ratio 0.01) | Structure (SMILES) |
| --- | --- | --- | --- | --- | --- | --- |
| 2.3 | 1.49 | 9.7 | 27.46% |  |  | C[C@@H]1C[C@H]2[C@@H]3CCC4=CC(=O)C=C[C@]4(C)[C@@]3(F)[C@@H](O)C[C@]2(C)[C@@]1(O)C(=O)CO [Dexamethasone, dexamethasone] |
|  | 11.41 |  | ~ 82.4% | remained constant | ~ 82.4% | COc1cc(/C=C/C(=O)CC(=O)/C=C/c2ccc(O)c(OC)c2)ccc1O [Curcumin, curcumin] |
|  |  |  |  | did not significantly increase |  | Nc1nc2c(ncn2COCCO)c(=O)[nH]1 [Acyclovir, acyclovir] |
